This note sets out measurements from patent US20080271210A1, “Oryza Sativa Lectin-Like Receptor Kinase 1 (Oslrk1), a Gene Involved in Plant Development” (Temasek Life Sciences Laboratory National University of …, priority 2004, published 2008).

Format in all cases: in vivo, Oryza sativa
One assay has as its system WT seeds and seedlings. Description: Germination and growth of WT seeds in galactose/mannose containing media. From the text:
(§1) The altered expression of the Oslrk1 by different sugars described above led us to study the response of the mutant to these monosaccharides and sucrose. The WT and the mutant seeds were germinated and grown in Gal, Man, Glu, Fm along with Suc at different concentrations (ranging from 0.1% to 1%) and Suc alone containing medium as a control. The following parameters were taken into account during observation: the shoot length, the number and the length of adventitious roots and the germination rate. […] Out of these three sugars tested, Man was selected as an example as its inhibitory effect was similar in seeds and seedlings of WT and mutant as shown in FIGS. 10A and B. The seed germination was severely affected by Man.
(§2) At 1.0% of the Gal, the shoot length decreased by half in the mutant, whereas only by 15% in the WT seedlings. […] Apart from this, the germination rate of the WT seeds dropped to 85% whereas in the mutant it dropped to 30%.
(§3) Germination of WT and mutant seeds in galactose/mannose containing media. WT and mutant seeds were germinated separately on MS medium containing 0.8% agar and 1% sucrose. In addition, D(+)galactose/D(+/−)mannose was added in different concentrations (0.1, 0.2, 0.5, and 1.0%) along with a control (MS with 1% of sucrose). At 14 days after germination, the observations for adventitious root number and length (cm), shoot length (cm) and germination rate (%) were recorded.

The test system of assay [1] is Oslrk1 mutant seeds and seedlings. Description: Germination and growth of Oslrk1 mutant seeds in galactose/mannose containing media. The following applies: for behavior of the mutant compared with the WT upon treatment: sugar 0.1% to 1% along with Suc.
Text: as §1, §2, §3

For another assay, the system named is Oslrk11. Description: RT-PCR of Oslrks in treated 2 week-old seedlings. The following applies: treated vs control. The protocol:
(§4) RT-PCRs were carried out on RNA samples isolated from 2 week-old seedlings treated with various sugar (FIG. 13), hormone (FIG. 14), and abiotic stresses (FIG. 15) using primers designated to either 3′ or 5′ Untranslated Regions (UTRs) of the 15 Oslrks found in Table 2. For each Oslrk two lanes in the gel are found, the first lane is the control and the second one treatment samples.
(§5) Table 3 provides a summary of all the above referenced data on the Oslrks, showing the RT-PCR results of various treatments, including sugar, hormone and abiotic stress and northern blot results on various tissues of rice plant grown in normal conditions, and the ESTs, or cDNAs availability in the database. In the table, “I” represents induced expression and “R” represents repressed expression.

The test system of another assay is Oslrk4. Description: RT-PCR of Oslrks in treated 2 week-old seedlings. The following applies: treated vs control. On the procedure:
as §4, §5

The test system of another assay is Oslrk5. Description: RT-PCR of Oslrks in treated 2 week-old seedlings. The following applies: treated vs control. On the procedure: as §4, §5
A further assay deals with Oslrk8. Description: RT-PCR of Oslrks in treated 2 week-old seedlings. The following applies: treated vs control. The protocol:
as §4, §5

The test system of a further assay is Oslrk1 mutant seedlings. Description: Growth of Oslrk1 mutant seedlings in MeJA or GA3 containing medium. The following applies: GA3 10 uM, two weeks in MS agar. The protocol:
(§6) In order to study the effect of phytohormones on the Oslrk1 mutant, seeds were grown in medium containing different concentrations of either MeJA ([…]) (FIG. 9A) or GA3 (0.5, 1, 5 and 10 μm) (data not shown) along with WT as a control The number and length of adventitious roots, number of lateral roots and shoot length were measured. […] In the WT seedlings the number of the lateral roots was increased at 5 uM and decreased by at 10 uM.
(§7) The adventitious root length of WT increased by 50% at 10 uM concentration of GA3, but it was not altered in the mutant (data not shown).
(§8) Plant Growth Conditions. Surface sterilized rice seeds were germinated and grown in cell culture containers (Phytatray II Sigma cell culture, USA) on 0.8% agar MS medium (Murashige and Skoog medium, Sigma., St. Louis Mo., USA) containing 1% of Suc for 2 weeks under 16/8 hours photoperiod. All chemicals used for the various treatments were purchased from Sigma.
(§9) Growth of WT and Mutant Seedlings in MeJA Containing Medium WT and mutant seeds were germinated and grown in MS medium (1% Suc) containing different concentrations of MeJA (1 μM, 5 μM, and 10 μM) for two weeks. No MeJA was added in the control. The number and length (cm) of adventitious roots as well as the number of lateral roots were measured.

The test system of the next assay is WT seedlings. Description: Growth of WT seedlings in MeJA or GA3 containing medium. The following applies: GA3 10 uM, two weeks in MS agar. On the procedure: as §6, §7, §8, §9
Assay [2] has as its system Oslrk1 gene. Description: Northern-blot of Oslrk1 transcript in WT seedlings treated with hormones and SA. The following applies: 24 hours, WT seedlings, 3' UTR probe, vs untreated. The text has this:
Differential Regulation of Oslrk1 Gene Expression by Hormones. Receptor-like kinases were postulated to be involved in signal transduction events as they perceive a signal via a ligand-binding extracellular domain and transmit it through the serine/threonine kinase domain into the cytosol (Shiu and Bleecker, 2001). In order to know possible factors influencing the Oslrk1 gene regulation, we analyzed promoter of the Oslrk1 (1.5 kb) for the presence of cis-acting elements using the program PlantCARE (Lescot et al., 2002). Three TGAGC motifs observed in MeJA inducible genes were found in promoter of the Oslrk1 at the positions −186, −657 and −1190. Apart from these, three GA3 inducible motifs (P-box-CCTTxt) −101, −206 and −740 bp upstream of the Oslrk1 ORF were located. In addition, five salicylic acid inducible motifs (TCA-elementcAGAAa/ga) at the positions of −321, −601, −604, −855 and −1135 were detected. The presence of MeJA, GA and SA responsive cis-elements in the Oslrk1 promoter indicated possible regulatory roles of these factors. The promoter analysis led us to study the effect of different hormones and compounds on the Oslrk1 transcription. The WT seeds were germinated for […] then seedlings were transferred to the medium containing one of the following chemicals: […], MeJA, GA3 or ABA at concentration 100 uM and SA (5 mM) for 24 hours (Materials and Methods). The total RNA isolated from the untreated and treated seedlings were used in Northern-blot hybridization using 3′ UTR of the Oslrk1 gene as a probe. The treatment with GA3 and SA repressed the Oslrk1 gene expression (FIG. 8A) by 2.5 and 3.3 times respectively. […] In order to confirm the level of induction of the Oslrk1 gene by MeJA over time, in another series of experiments, a time course was performed after hormone treatment. Seven day old seedlings were sprayed with 100 uM of MeJA solution and they were harvested in 1, 2, 4, 6, 8, and 12 hours.
RNA Isolation and Northern-blot Analysis. RNA was isolated from different organs of rice plant at different developmental stages (roots of 10-14 days old seedlings and 2 months old plants, 10-14 days old seedlings, young and mature leaves, panicles at the flowering stage and calli) using a RNeasy Plant mini kit (Qiagen,). The RNA (10 ug) was fractionated on a 1.2% denaturating formaldehyde agarose gel and transferred onto a Hybond-N^+ membrane (Amersham). The bolts were hybridized with dogoxigenin (DIG)-labeled probes in DIG Easy Hyb solution (Roche) at 50° C. After hybridization, membranes were washed twice with 2×SSC and 0.1% SDS for 15 min, then twice with 0.5×SSC and 0.1% SDS for 15 min at 68° C. Detection was carried out according to manufacturer using DIG Wash and Block Buffer set and chemiluminescent substrate CDP Star™ (Roche). DIG-labelled probe corresponded to 3′UTR and lectin domain of Oslrk1 was used. For the control of RNA quantity, DIG-probe corresponding to rice Actin1 gene was synthesized using the following primers: […]
The RT-PCRs and Northern blots were repeated at least thrice and similar results were obtained. The quantification of the intensity of the hybridization signals was performed using Quantity ONE 4.5.0 software in Gel doc XR documentation system (Bio-Rad Laboratories, Inc., USA). The level of actual expression was calculated as a ratio of intensity of specific signal (Oslrk1 3′UTR probe) to the intensity of signal of positive control (rice Act1).
Treatment of WT Seedlings with Hormones and Sugars. Two week old WT seedlings were transferred to MS medium containing 100 μM of different hormones, such as Indole 3-Acetic Acid (IAA), Abscisic acid (ABA), Methyl Jasmonate (MeJA), or Gibbrellic Acid (GA3) and 5 mM of Salicylic Acid (SA), and were grown for 24 hours under normal day/light conditions. Total RNA was extracted from root of the seedlings and whole seedlings. […]

Assay [3] deals with Oslrk1 gene. Description: Northern-blot of Oslrk1 transcript in WT seedlings treated with sugars. The following applies: sugars 175 mM, 48 hours, Mannitol as osmotic control. On the procedure: Lectins are known as carbohydrate-binding proteins that specifically recognize diverse sugar structures (Vijayan and Chandra, 1999). […] Five different sugars: glucose (Glu), sucrose (Suc), fructose (Fm), Gal and Man were used for this study along with Mannitol as an osmotic control (Methods). Northern-blot hybridizations were carried out on the total RNA isolated from treated seedlings.
RNA Isolation and Northern-blot Analysis. RNA was isolated from different organs of rice plant at different developmental stages (roots of 10-14 days old seedlings and 2 months old plants, 10-14 days old seedlings, young and mature leaves, panicles at the flowering stage and calli) using a RNeasy Plant mini kit (Qiagen,). […] For the control of RNA quantity, DIG-probe corresponding to rice Actin1 gene was synthesized using the following primers: […]
The RT-PCRs and Northern blots were repeated at least thrice and similar results were obtained. The quantification of the intensity of the hybridization signals was performed using Quantity ONE 4.5.0 software in Gel doc XR documentation system (Bio-Rad Laboratories, Inc., USA). The level of actual expression was calculated as a ratio of intensity of specific signal (Oslrk1 3′UTR probe) to the intensity of signal of positive control (rice Act1). […]

The next assay relates to Oslrk10. Description: RT-PCR of Oslrks in treated 2 week-old seedlings. The following applies: Rt, treated vs control. On the procedure: as §4, §5
Another assay deals with Oslrk2. Description: RT-PCR of Oslrks in treated 2 week-old seedlings. The following applies: treated vs control. The protocol: as §4, §5

Regarding `O=C[C@@H](O)[C@@H](O)[C@H](O)[C@H](O)CO` (racemic) [Man, mannose], the “effect on any parameters tested (shoot length, number and length of adventitious roots, germination rate)” value in the assay on WT seeds and seedlings (mannose 0.1%) is listed as “No obvious effect”; in [1] (Oslrk1 mutant, mannose 0.1%), “No obvious effect”. Also, the seed germination rate in the assay with WT seeds and seedlings (mannose 0.2%) amounted to 35%; in [1] (Oslrk1 mutant, mannose 0.2%), 35%. The seed germination entry was “did not germinate” with WT seeds and seedlings (mannose 0.5%); “did not germinate” in assay [1] (Oslrk1 mutant, mannose 0.5%). Further, the “behavior of the mutant compared with the WT upon treatment” value in assay [1] is “No significant differences”. The “Oslrk11 expression by RT-PCR, Rt” value in the assay on Oslrk11 is listed as “I”. Further, in the assay on Oslrk4, the “Oslrk4 expression by RT-PCR, Rt” value is recorded as “I”. The “Oslrk5 expression by RT-PCR, Rt” value in the assay on Oslrk5 was “I”. In addition, in the assay with Oslrk5, the “Oslrk5 expression by RT-PCR, Sh” value is reported as “R”. For the same compound, in the assay on Oslrk8, the “Oslrk8 expression by RT-PCR, Rt” value is “I”.

On to `O=C(CO)[C@@H](O)[C@H](O)[C@H](O)CO` [Fm, fructose], for which the “behavior of the mutant compared with the WT upon treatment” value in [1] is “No significant differences”.

Consider `C=C1C[C@]23C[C@@]1(O)CC[C@H]2[C@@]12C=C[C@H](O)[C@@](C)(C(=O)O1)[C@H]2[C@@H]3C(=O)O` [GA3, Gibbrellic Acid], for which the adventitious root length result with Oslrk1 mutant seedlings is reported as “not altered”. In the assay on WT seedlings, the “adventitious root length increased by” value is on record as 50%. In addition, the “Oslrk1 gene expression repressed by” value in the assay with Oslrk1 gene [2] (100 uM) was found to be 2.5 times. In addition, in the assay on Oslrk11, the “Oslrk11 expression by RT-PCR, Rt” value is “I”. Further, in the assay with Oslrk11 (Sh), the “Oslrk11 expression by RT-PCR, Sh” value is “R”. For the same compound, in the assay on Oslrk4, the “Oslrk4 expression by RT-PCR, Rt” value is reported as “I”. For the same compound, in the assay with Oslrk5, the “Oslrk5 expression by RT-PCR, Rt” value is reported as “I”. Further, the “Oslrk8 expression by RT-PCR, Rt” value in the assay with Oslrk8 is “I”.

Consider `O=C[C@H](O)[C@@H](O)[C@H](O)[C@H](O)CO` [Glu, glucose], for which the “behavior of the mutant compared with the WT upon treatment” value in assay [1] is “No significant differences”. In the assay on Oslrk4, the “Oslrk4 expression by RT-PCR, Rt” value was “I”. In addition, the “Oslrk4 expression by RT-PCR, Sh” value with Oslrk4 (Sh) is “R”. Also, the “Oslrk8 expression by RT-PCR, Rt” value in the assay with Oslrk8 is “I”. Moreover, the “Oslrk8 expression by RT-PCR, Sh” value in the assay with Oslrk8 (Sh) was “R”.

Consider `OC[C@@H](O)[C@@H](O)[C@H](O)[C@H](O)CO` [Mannitol], for which the “Oslrk1 expression in response to sugars” value with Oslrk1 gene [3] was “not altered”.

`O=C(O)c1ccccc1O` [SA, Salicylic Acid]: the “Oslrk1 gene expression repressed by” value with Oslrk1 gene [2] (5 mM) is listed as 3.3 times. Also, the “Oslrk11 expression by RT-PCR, Rt” value in the assay on Oslrk11 was “I”. In addition, in the assay with Oslrk10, the “Oslrk10 expression by RT-PCR, Rt” value is “I”. The “Oslrk4 expression by RT-PCR, Rt” value in the assay with Oslrk4 was “I”. The “Oslrk5 expression by RT-PCR, Rt” value in the assay with Oslrk5 is on record as “I”. For the same compound, the “Oslrk8 expression by RT-PCR, Rt” value in the assay on Oslrk8 was “I”.

For the compound `OC[C@H]1O[C@@](CO)(O[C@H]2O[C@H](CO)[C@@H](O)[C@H](O)[C@H]2O)[C@@H](O)[C@@H]1O` [Suc, sucrose], the “Oslrk2 expression by RT-PCR, Rt” value with Oslrk2 (Rt) is “I”. The “Oslrk2 expression by RT-PCR, Sh” value in the assay with Oslrk2 (Sh) was “R”. The “Oslrk11 expression by RT-PCR, Rt” value with Oslrk11 was “I”. In the assay on Oslrk5, the “Oslrk5 expression by RT-PCR, Rt” value was “I” and the “Oslrk5 expression by RT-PCR, Sh” value is on record as “I”.
